Data: patent US20230059136A1, “THE COMPOUNDS AND COMPOSITIONS FOR TREATING CONDITIONS ASSOCIATED WITH NLRP ACTIVITY” (Novartis AG, priority 2018, published 2023)
pIC50: −log10 of the molar value.

System: IL-1β production in PMA-differentiated THP-1 cells
Assay: IL-1β production in PMA-differentiated THP-1 cells stimulated with gramicidin (hTHP-1 assay containing 2% fetal bovine serum)
Assay type: cell-based, human
Details: Homo sapiens, THP-1, Table B1; 2% fetal bovine serum; class symbols; read-out: hTHP-1 IC50 (Average IC50 of compounds in hTHP-1 assay)
How it was run: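 IL-1β release was read by HTRF on supernatants of 50,000 PMA-primed (20 ng/ml, 16-18 h) THP-1 cells/well in 2% FBS medium. Cells saw compound for 1 h (11-point titration from 100 μM, 0.37% DMSO) before a 2 h gramicidin (5 μM) challenge.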

SMILES	pIC50
CC(C)c1cc(C(=O)CC2CCCCC2)cc(C(C)C)c1CC(=O)N=S(N)(=O)c1cc(C(C)(C)O)n(-c2ccccc2)n1 (single isomer, unassigned) [Example 285, (R) or (S)-N-(amino(5-(2-hydroxypropan-2-yl)-1-phenyl-1H-pyrazol-3-yl)(oxo)-λ^6-sulfaneylidene)-2-(4-(2-cyclohexylacetyl)-2,6-diisopropylphenyl) acetamide]	5.30 to 6.00
CC(C)c1cc(-c2ccc(Cl)c(Cl)c2)cc(C(C)C)c1CC(=O)N=S(N)(=O)c1ncc(C(C)(C)O)s1 (centres unmarked) [Example 122, N-(amino(5-(2-hydroxypropan-2-yl)thiazol-2-yl)(oxo)-λ^6-sulfaneylidene)-2-(3′,4′-dichloro-3,5-diisopropyl-[1,1′-biphenyl]-4-yl)acetamide]	6.00 to 6.70
CC(C)c1cc(C(F)F)cc(C(C)C)c1CC(=O)N=S(N)(=O)c1ccc(CN(C)C)nc1 (single isomer, unassigned) [Example 328, (R) or (S)-N-(amino(6-((dimethylamino)methyl)pyridin-3-yl)(oxo)-λ^6-sulfaneylidene)-2-(4-(difluoromethyl)-2,6-diisopropylphenyl) acetamide]	5.30 to 6.00
CC(C)c1cc2c(c(C(C)C)c1CC(=O)N=S(N)(=O)c1cnc(C(C)(C)O)s1)CCC2 (centres unmarked) [Example 142, N-(amino(2-(2-hydroxypropan-2-yl)thiazol-5-yl)(oxo)-λ^6-sulfaneylidene)-2-(4,6-diisopropyl-2,3-dihydro-1H-inden-5-yl)acetamide]	5.30 to 6.00
CC(C)(O)c1ncc(S(N)(=O)=NC(=O)Cc2c3c(cc4c2CC4)CCC3)s1 (centres unmarked) [Example 222, N-(amino(2-(2-hydroxypropan-2-yl)thiazol-5-yl)(oxo)-λ^6-sulfaneylidene)-2-(2,4,5,6-tetrahydro-1H-cyclobuta[f]inden-3-yl)acetamide]	5.30 to 6.00
CC(C)c1cc(C(=O)CC2CCCCC2)cc(C(C)C)c1CC(=O)N=S(N)(=O)c1cc(C(C)(C)O)n(-c2ccccc2)n1 (centres unmarked) [Example 227]	5.30 to 6.00
CC(C)c1cc(C#CC2CCOCC2)cc(C(C)C)c1CC(=O)N=S(N)(=O)c1cc(C(C)(C)O)n(-c2ccccc2)n1 (centres unmarked) [Example 229, N-(amino(5-(2-hydroxypropan-2-yl)-1-phenyl-1H-pyrazol-3-yl)(oxo)-λ^6-sulfaneylidene)-2-(2,6-diisopropyl-4-((tetrahydro-2H-pyran-4-yl)ethynyl)phenyl)acetamide]	5.30 to 6.00
CNCc1ccc(S(N)(=O)=NC(=O)Cc2c(C(C)C)cc(C(F)F)nc2C(C)C)cc1 (single isomer, unassigned) [Example 324, (R) or (S)-N-(amino (4-((methylamino)methyl)phenyl)(oxo)-λ^6-sulfaneylidene)-2-(6-(difluoromethyl)-2,4-diisopropylpyridin-3-yl)acetamide]	4.52 to 5.30
CC(C)c1cc(CCC2CCCCC2)cc(C(C)C)c1CC(=O)N=S(N)(=O)c1cc(C(C)(C)O)n(-c2ccccc2)n1 (centres unmarked) [Example 228, N-(amino(5-(2-hydroxypropan-2-yl)-1-phenyl-1H-pyrazol-3-yl)(oxo)-λ^6-sulfaneylidene)-2-(4-(2-cyclohexylethyl)-2,6-diisopropylphenyl)acetamide]	4.52 to 5.30

Same assay, conditions: Homo sapiens, THP-1, Table B2; 2% fetal bovine serum; cells printed as numeric bound; read-out: hTHP-1 IC50 (Average IC50 of compounds in hTHP-1 assay)

SMILES	pIC50
CC(C)c1cc2ccccc2c(C(C)C)c1CC(=O)N=[S@@](N)(=O)c1cnc(C(C)(C)O)s1 [Example 389, (R)-N-(amino(2-(2-hydroxypropan-2-yl)thiazol-5-yl) (oxo)-λ^6-sulfaneylidene)-2-(1,3-diisopropylnaphthalen-2-yl)acetamide]	< 4.52
COc1ccc(C(C)(C)O)cc1[S@](=O)(=NC(=O)Cc1c(C(C)C)cc(C#N)cc1C(C)C)NC#N [Example 377, (S)-N-(cyanamido(5-(2-hydroxypropan-2-yl)-2-methoxyphenyl)(oxo)-λ^6-sulfaneylidene)-2-(4-cyano-2,6-diisopropylphenyl)acetamide]	< 4.52

Same assay, conditions: Homo sapiens, THP-1, Table B2; 2% fetal bovine serum; class symbols; read-out: hTHP-1 IC50 (Average IC50 of compounds in hTHP-1 assay)

SMILES	pIC50
CC(C)c1cc(C#N)c(F)c(C(C)C)c1CC(=O)N=S(=O)(NC#N)c1cnc(C(O)(CO)CO)s1 (centres unmarked) [Example 360, N-(cyanamido(oxo)(2-(1,2,3-trihydroxypropan-2-yl)thiazol-5-yl)-λ^6-sulfaneylidene)-2-(4-cyano-3-fluoro-2,6-diisopropylphenyl)acetamide]	4.52 to 5.30
CC(C)(O)c1ncc([S@@](=O)(=NC(=O)Cc2c3c(cc4c2CC4)CCC3)NC#N)s1 [Example 362, (R)-N-(cyanamido(2-(2-hydroxypropan-2-yl)thiazol-5-yl) (oxo)-λ^6-sulfaneylidene)-2-(2,4,5,6-tetrahydro-1H-cyclobuta [f]inden-3-yl)acetamide]	5.30 to 6.00

Same assay, conditions: Table B1; 2% fetal bovine serum; class symbols; read-out: hTHP-1 IC50 (Average IC50 of compounds in hTHP-1 assay)

SMILES	pIC50
CC(C)c1cc(-c2ccc3c(c2)OC(F)(F)O3)cc(C(C)C)c1CC(=O)N=S(N)(=O)c1ncc(C(C)(C)O)s1 (single isomer, unassigned) [Example 165, (S) or (R)-N-(amino(5-(2-hydroxypropan-2-yl)thiazol-2-yl)(oxo)-λ^6-sulfaneylidene)-2-(4-(2,2-difluorobenzo[d] [1,3]dioxol-5-yl)-2,6-diisopropylphenyl) acetamide]	5.30 to 6.00
CCc1cc2c(c(C(C)C)c1CC(=O)N=S(N)(=O)c1sc(C(C)(C)O)cc1F)COC2 (single isomer, unassigned) [Example 298, (S) or (R)-N-(amino(3-fluoro-5-(2-hydroxypropan-2-yl)thiophen-2-yl)(oxo)-λ^6-sulfaneylidene)-2-(6-ethyl-4-isopropyl-1,3-dihydroisobenzofuran-5-yl)acetamide]	4.52 to 5.30
CC(C)c1cc(F)c(F)c(C(C)C)c1CC(=O)N=S(N)(=O)c1nc(C(C)(C)O)cs1 (single isomer, unassigned) [Example 177, (R) or (S)-N-(amino(4-(2-hydroxypropan-2-yl)thiazol-2-yl)(oxo)-λ^6-sulfaneylidene)-2-(3,4-difluoro-2,6-diisopropylphenyl) acetamide]	6.70 to 7.40
CC(C)c1cc2c(c(C(C)C)c1CC(=O)N=S(N)(=O)c1cc(C(C)(C)O)cs1)COC2 (single isomer, unassigned) [Example 217, (S) or (R)-N-(amino (4-(2-hydroxypropan-2-yl)thiophen-2-yl)(oxo)-λ^6-sulfaneylidene)-2-(4,6-diisopropyl-1,3-dihydro-isobenzofuran-5-yl)acetamide]	4.52 to 5.30
Cc1sc(S(N)(=O)=NC(=O)Cc2c(C(C)C)ccc(F)c2C(C)C)cc1C(C)(C)O (single isomer, unassigned) [Example 174, (S) or (R)-N-(amino(4-(2-hydroxypropan-2-yl)-5-methylthiophen-2-yl)(oxo)-λ^6-sulfaneylidene)-2-(3-fluoro-2,6-diisopropylphenyl) acetamide]	4.52 to 5.30
CC(C)c1ccc(F)c(C(C)C)c1CC(=O)N=S(N)(=O)c1ccc(C(C)(C)O)s1 (single isomer, unassigned) [Example 175, (S) or (R)-N-(amino(5-(2-hydroxypropan-2-yl)thiophen-2-yl)(oxo)-λ^6-sulfaneylidene)-2-(3-fluoro-2,6-diisopropylphenyl) acetamide]	5.30 to 6.00
CC(C)c1cc(C#N)cc(C(C)C)c1CC(=O)N=S(N)(=O)c1ncc(C(C)(C)O)s1 (single isomer, unassigned) [Example 83, (S)- or (R)-2-(4-cyano-2,6-diisopropylphenyl)-N-(5-(2-hydroxypropan-2-yl)thiazol-2-ylsulfonimidoyl)acetamide]	6.70 to 7.40
